Experiments:
Experiment in all cases: relative viability (nuclei count vs DMSO), 5 days (fraction); higher = more cells survive
201T = system: 201T
Summary of the method: (§1)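 Each reported value is a median over duplicate plates. It expresses relative viability: treated-well nuclei count divided by vehicle-well nuclei count. Lung cancer cell lines in 1536-well plates were dosed by pin tool a day after seeding, alone with one drug or with a fixed anchor-drug dose plus five library-drug doses (not always all listed) in √10 steps, and nuclei were counted after 5 days.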

A-427 = system: A-427
Summary of the method: as §1

BEN = system: BEN
Summary of the method: as §1

COR-L23 = system: COR-L23
Summary of the method: as §1

EKVX = system: EKVX
Summary of the method: as §1

HARA = system: HARA
Summary of the method: as §1

HCC-15 = system: HCC-15
Summary of the method: as §1

HCC-827 = system: HCC-827
Summary of the method: as §1

NCI-H1437 = system: NCI-H1437
Summary of the method: as §1

NCI-H1650 = system: NCI-H1650
Summary of the method: as §1

NCI-H1792 = system: NCI-H1792
Summary of the method: as §1

NCI-H1975 = system: NCI-H1975
Summary of the method: as §1

NCI-H2342 = system: NCI-H2342
Summary of the method: as §1

NCI-H23 = system: NCI-H23
Summary of the method: as §1

NCI-H358 = system: NCI-H358
Summary of the method: as §1

NCI-H441 = system: NCI-H441
Summary of the method: as §1

NCI-H596 = system: NCI-H596
Summary of the method: as §1

NCI-H650 = system: NCI-H650
Summary of the method: as §1

NCI-H838 = system: NCI-H838
Summary of the method: as §1

SK-MES-1 = system: SK-MES-1
Summary of the method: as §1

SW 900 = system: SW 900
Summary of the method: as §1

CC(=O)O[C@@]12CO[C@@H]1C[C@H](O)[C@@]1(C)C(=O)[C@H](O)C3=C(C)[C@@H](OC(=O)[C@H](O)[C@@H](NC(=O)OC(C)(C)C)c4ccccc4)C[C@@](O)([C@@H](OC(=O)c4ccccc4)[C@H]21)C3(C)C [Docetaxel] + Cc1nc(Nc2ncc(C(=O)Nc3c(C)cccc3Cl)s2)cc(N2CCN(CCO)CC2)n1 [Dasatinib] (partner 0.075 µM)
relative viability (201T; first compound 0.0002 µM): 0.562 | relative viability (201T; first compound 0.000632 µM): 0.548 | relative viability (201T; first compound 0.002 µM): 0.52 | relative viability (201T; first compound 0.006325 µM): 0.46 | relative viability (201T; first compound 0.02 µM): 0.282 | relative viability (A-427; first compound 0.0002 µM): 0.721 | relative viability (A-427; first compound 0.000632 µM): 0.642 | relative viability (A-427; first compound 0.002 µM): 0.445 | relative viability (A-427; first compound 0.006325 µM): 0.154 | relative viability (A-427; first compound 0.02 µM): 0.141 | relative viability (BEN; first compound 0.0002 µM): 0.281 | relative viability (BEN; first compound 0.000632 µM): 0.355 | relative viability (BEN; first compound 0.002 µM): 0.328 | relative viability (BEN; first compound 0.006325 µM): 0.183 | relative viability (BEN; first compound 0.02 µM): 0.154 | relative viability (COR-L23; first compound 0.0002 µM): 0.458 | relative viability (COR-L23; first compound 0.000632 µM): 0.406 | relative viability (COR-L23; first compound 0.002 µM): 0.226 | relative viability (COR-L23; first compound 0.006325 µM): 0.112 | relative viability (COR-L23; first compound 0.02 µM): 0.0725 | relative viability (EKVX; first compound 0.0002 µM): 0.472 | relative viability (EKVX; first compound 0.000632 µM): 0.45 | relative viability (EKVX; first compound 0.002 µM): 0.296 | relative viability (EKVX; first compound 0.006325 µM): 0.264 | relative viability (EKVX; first compound 0.02 µM): 0.195 | relative viability (HARA; first compound 0.0002 µM): 0.261 | relative viability (HARA; first compound 0.000632 µM): 0.173 | relative viability (HARA; first compound 0.002 µM): 0.134 | relative viability (HARA; first compound 0.006325 µM): 0.0839 | relative viability (HARA; first compound 0.02 µM): 0.0451 | relative viability (HCC-15; first compound 0.0002 µM): 0.456 | relative viability (HCC-15; first compound 0.000632 µM): 0.221 | relative viability (HCC-15; first compound 0.002 µM): 0.16 | relative viability (HCC-15; first compound 0.006325 µM): 0.21 | relative viability (HCC-15; first compound 0.02 µM): 0.115 | relative viability (HCC-827; first compound 0.0002 µM): 0.237 | relative viability (HCC-827; first compound 0.000632 µM): 0.297 | relative viability (HCC-827; first compound 0.002 µM): 0.289 | relative viability (HCC-827; first compound 0.006325 µM): 0.22 | relative viability (HCC-827; first compound 0.02 µM): 0.155 | relative viability (NCI-H1437; first compound 0.0002 µM): 0.339 | relative viability (NCI-H1437; first compound 0.000632 µM): 0.259 | relative viability (NCI-H1437; first compound 0.002 µM): 0.268 | relative viability (NCI-H1437; first compound 0.006325 µM): 0.174 | relative viability (NCI-H1437; first compound 0.02 µM): 0.122 | relative viability (NCI-H1650; first compound 0.0002 µM): 0.263 | relative viability (NCI-H1650; first compound 0.000632 µM): 0.245 | relative viability (NCI-H1650; first compound 0.02 µM): 0.104 | relative viability (NCI-H1792; first compound 0.0002 µM): 0.796 | relative viability (NCI-H1792; first compound 0.000632 µM): 0.707 | relative viability (NCI-H1792; first compound 0.002 µM): 0.648 | relative viability (NCI-H1792; first compound 0.006325 µM): 0.482 | relative viability (NCI-H1792; first compound 0.02 µM): 0.22 | relative viability (NCI-H1975; first compound 0.0002 µM): 0.377 | relative viability (NCI-H1975; first compound 0.000632 µM): 0.284 | relative viability (NCI-H1975; first compound 0.002 µM): 0.152 | relative viability (NCI-H1975; first compound 0.006325 µM): 0.127 | relative viability (NCI-H1975; first compound 0.02 µM): 0.107 | relative viability (NCI-H2342; first compound 0.0002 µM): 0.309 | relative viability (NCI-H2342; first compound 0.000632 µM): 0.326 | relative viability (NCI-H2342; first compound 0.002 µM): 0.308 | relative viability (NCI-H2342; first compound 0.006325 µM): 0.285 | relative viability (NCI-H2342; first compound 0.02 µM): 0.265 | relative viability (NCI-H23; first compound 0.0002 µM): 0.838 | relative viability (NCI-H23; first compound 0.000632 µM): 0.777 | relative viability (NCI-H23; first compound 0.002 µM): 0.483 | relative viability (NCI-H23; first compound 0.006325 µM): 0.188 | relative viability (NCI-H23; first compound 0.02 µM): 0.0867 | relative viability (NCI-H358; first compound 0.0002 µM): 0.159 | relative viability (NCI-H358; first compound 0.000632 µM): 0.179 | relative viability (NCI-H358; first compound 0.006325 µM): 0.111 | relative viability (NCI-H358; first compound 0.02 µM): 0.0699 | relative viability (NCI-H441; first compound 0.0002 µM): 0.621 | relative viability (NCI-H441; first compound 0.000632 µM): 0.499 | relative viability (NCI-H441; first compound 0.002 µM): 0.235 | relative viability (NCI-H441; first compound 0.006325 µM): 0.224 | relative viability (NCI-H441; first compound 0.02 µM): 0.148 | relative viability (NCI-H596; first compound 0.0002 µM): 0.551 | relative viability (NCI-H596; first compound 0.000632 µM): 0.6 | relative viability (NCI-H596; first compound 0.002 µM): 0.543 | relative viability (NCI-H596; first compound 0.006325 µM): 0.397 | relative viability (NCI-H596; first compound 0.02 µM): 0.222 | relative viability (NCI-H650; first compound 0.0002 µM): 0.396 | relative viability (NCI-H650; first compound 0.000632 µM): 0.361 | relative viability (NCI-H650; first compound 0.002 µM): 0.253 | relative viability (NCI-H650; first compound 0.006325 µM): 0.228 | relative viability (NCI-H650; first compound 0.02 µM): 0.198 | relative viability (NCI-H838; first compound 0.0002 µM): 0.318 | relative viability (NCI-H838; first compound 0.000632 µM): 0.3 | relative viability (NCI-H838; first compound 0.002 µM): 0.265 | relative viability (NCI-H838; first compound 0.006325 µM): 0.247 | relative viability (NCI-H838; first compound 0.02 µM): 0.175 | relative viability (SK-MES-1; first compound 0.0002 µM): 0.326 | relative viability (SK-MES-1; first compound 0.000632 µM): 0.316 | relative viability (SK-MES-1; first compound 0.002 µM): 0.19 | relative viability (SK-MES-1; first compound 0.006325 µM): 0.167 | relative viability (SK-MES-1; first compound 0.02 µM): 0.072 | relative viability (SW 900; first compound 0.0002 µM): 0.612 | relative viability (SW 900; first compound 0.000632 µM): 0.218 | relative viability (SW 900; first compound 0.002 µM): 0.171 | relative viability (SW 900; first compound 0.006325 µM): 0.221 | relative viability (SW 900; first compound 0.02 µM): 0.127

Source: the supplement of paper PMC10307832
